Reference: patent publication US20040121489A1, “COX-2 mediated altered prostaglandin balance in diabetes complications” (priority 2002, published 2004)

Columns and labels:
COX-2 = biological target: T1, COX-2 (Mus musculus, UniProt Q05769); conditions: cited from Zhao et al., Mol. Carcinog. 1999; cited from earlier work
T1 construct: cyclooxygenase 2 and interleukin-1 alpha expression in SENCAR mouse epidermis
T1 sequence (Q05769 18-604): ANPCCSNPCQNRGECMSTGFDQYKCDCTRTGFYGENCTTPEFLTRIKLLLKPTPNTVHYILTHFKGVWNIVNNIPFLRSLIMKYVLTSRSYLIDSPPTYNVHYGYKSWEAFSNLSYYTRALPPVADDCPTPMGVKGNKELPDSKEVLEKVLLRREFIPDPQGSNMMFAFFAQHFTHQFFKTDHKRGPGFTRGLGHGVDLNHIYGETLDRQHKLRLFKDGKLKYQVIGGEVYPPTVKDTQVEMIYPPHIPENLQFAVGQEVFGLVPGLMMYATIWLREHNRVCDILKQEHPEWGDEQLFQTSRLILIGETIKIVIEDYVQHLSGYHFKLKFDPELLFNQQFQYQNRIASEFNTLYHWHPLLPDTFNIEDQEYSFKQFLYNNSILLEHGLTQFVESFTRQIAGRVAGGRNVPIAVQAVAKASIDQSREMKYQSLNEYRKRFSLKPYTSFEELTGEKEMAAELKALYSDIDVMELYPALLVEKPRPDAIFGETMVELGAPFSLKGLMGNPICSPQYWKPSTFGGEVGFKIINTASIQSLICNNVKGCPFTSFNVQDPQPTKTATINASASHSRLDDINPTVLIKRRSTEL

urinary PGE2/TXB2 ratio = assay: Selective COX-2 and COX-1 blockage in mice, urinary PGE2/TXB2 ratio pre- and post-intervention; type: in vivo, mice (NOD, B6, B6.NODc1t)
Method: Urine was directly aliquoted and stored at −70° C. until assay. Enzyme immunoassay was used to particularly detect renal derived metabolites and the systemic derived metabolites. […] The EIA kits utilize a competitive binding assay between unlabeled compound from the specimen sample and a fixed quantity of peroxidase labeled compound for a limited number of binding sites on a compound specific antibody. Assays were performed in 96 well microtitre plates with 50 μL specimen. The unknown sample was bound to appropriate antiserum and conjugate and optical density read at 450 nm using a BIORAD 3550 UV microplate reader. Raw optical density data was converted to percent binding by plotting the percent binding B/Bo as a function of the log compound concentration. Concentration of the prostanoid compound was then directly calculated in pg/well. This concentration was then converted to pg/mL and subsequently to pg/mg urinary creatinine to adjust for urinary concentration, body size and age. The final ratios of PGE2/TXB2 or PGE2+6kPGF1α/TXB2 were then directly calculated.
Selective COX-2 and COX-1 blockage were analyzed in three groups of mice—NOD mice, B6 mice, and a congenic B6.NODc1t strain.
Eight age-matched female 6-8 week old mice of each strain (NOD, B6, and C1t) were divided into two groups.

COc1cc(C2Oc3cc([C@H]4Oc5cc(O)cc(O)c5C(=O)[C@@H]4O)ccc3OC2CO)ccc1O (stereo partly drawn) [silybinin]
COX-2 inhibition relative to COX-1 inhibition (COX-2): significant COX-2 inhibition

CS(=O)(=O)Nc1ccc([N+](=O)[O-])cc1OC1CCCCC1 [NS-398]
increase in the urinary PGE2/TXB2 ratio (urinary PGE2/TXB2 ratio; 10 mg/kg/d i.p. daily for 14 days, all the three strains of mice (NOD, B6, B6.NODc1t), female 6-8 week old): 3-7 fold | difference in urinary PGE2/TXB2 (Dunn's simultaneous multiple comparison test) (urinary PGE2/TXB2 ratio; NOD and B6.NODc1t group, COX-2 blocker 10 mg/kg/d i.p. 14 days, pre- vs post-intervention): significant
